Results published in patent publication US6747149B2, “Glucamine salts for treating hepatitis virus infections” (G. D. Searle & Co., priority 1999, dated 2004).
Where two headings read alike, the source gives them in different places. Marks after values point to notes of the source that are not given here.

Tests used:
[1] = system: Hepatitis B Virus; experiment: Hepatitis B virus secretion by chronically HBV secreting HepG2.2.15 cells (immunoprecipitated virion DNA, PCR); assay type: cell-based; details: for [] for 90% HBV secretion inhibition: based upon duplicate PCR results; for Relative amount of HBV secreted As A % of Control: 3 days, preS1 immunoprecipitation, PCR
Method: (§1) The anti-hepatitis B virus activity and effect on cell viability of a number of different N-substituted-1,5-dideoxy-1,5-imino-D-glucitol compounds were assessed using an in vitro assay employing chronically hepatitis B virus secreting HepG2.2.15 cells. The method employed was essentially that described in Block et al. (1994) Proc. Natl. Acad. Sci. USA 91:2235-2239.

[2] = system: HepG2.2.15 Cells; experiment: Viability of HepG2.2.15 cells, trypan blue exclusion; assay type: cell-based; details: 3 days, cells excluding trypan blue
Method: as §1

[3] = system: HBV; experiment: Cell culture experiments with N-nonyl-DNJ: total HBV DNA and immune precipitated DNA; assay type: cell-based, hepatitis B virus
From the text: (§2) There are two measures of drug efficacy: reduction in total HBV DNA (measured by quantitative PCR), and reduction in HBV DNA from capsids with intact surface glycoproteins, which is the active form of the virus (measured by an ELISA-like immune precipitation assay followed by quantitative PCR).

[4] = system: woodchuck hepatitis virus (WHV); experiment: Woodchuck model, N-nonyl-DNJ alone, BID oral dosing; assay type: in vivo
From the text: In order to evaluate the efficacy of N-nonyl-DNJ in combination with 3TC (or other nucleoside or nucleotide analogs) against Hepatitis B virus in a woodchuck animal model, an monotherapy experiment using N-nonyl-DNJ alone was first conducted. This was necessary to determine if N-nonyl-DNJ has any anti-HBV effect in the woodchuck and, if N-nonyl-DNJ has a beneficial effect, to design a combination study based on the dose-response relationship of this drug alone.
Therefore, five groups of four animals each (all groups had both sexes, all but the control had two of each sex) were assigned to 0, 12.5, 25, 50, and 100 mg/kg/day with BID oral dosing. These were lab-reared wild animals. All animals were infected with woodchuck hepatitis virus (WHV) as neonates, and had been tested positive on serological tests for WHV surface antigen. Blood samples were drawn one week prior to dosing (−1 week), immediately before dosing (0 weeks), weekly during dosing (1, 2, 3, and 4 weeks), and after the end of dosing (5, 6, 8, and 10 weeks).
as §2
Before models are fitted to the data, a log transform was applied because: 1) the variation in IPDNA increases with increasing IPDNA values; the log transformation gives values with a nearly constant variation, and 2) it is expected that drug effects will appear as a constant multiplier of the IPDNA level. Because there are zero values of IPDNA, a small value (about ½ of the smallest non-zero value) was added to all values before the log transform.
Two approaches were used to model the changes in slope to week with dose of N-nonyl-DNJ: a linear modeling approach and a nonlinear model. Both approaches assume that the (linear) rate of change of the Log(IPDNA) measure over the dosing period is the “right” measure to reflect the effect of the drug on the virus. Both approaches are fit in stages, and the first stage is common to both approaches. First, a simple straight line regression model is fit using weeks 0-4 to predict log(IPDNA_+—10) separately for each animal by run combination. In the second stage, the response variable is the slope fitted in the first stage.
For the linear approach, a model is fit with slope to week as the response where run is considered a block, dose has a significant effect (almost all of this effect is due to a slope to dose), and the relevant error for testing the effect of dose is the variation among animals treated alike (after the adjustment for the runs as blocks). This is similar to using the calibration data within each run to first adjust each run's data to a common virus DNA concentration; the difference is that here the data from the woodchucks are used for the run adjustment rather than only the calibration data.
For the nonlinear approach, a four parameter logistic model is fit with the slope to week as the response and the dose as the predictor. Again, run is considered a block, but because no run has all weeks, it is not possible to fully reflect the blocking in the nonlinear approach. […]

[5] = system: HepG2.2.15 Cells; experiment: MTT-based colorimetric assay of cell viability
Method: as §1

CCCCN1C[C@H](OC(C)=O)[C@@H](OC(C)=O)[C@H](OC(C)=O)[C@H]1COC(C)=O [Example 2, 1,5-(Butylimino)-1,5-dideoxy-D-glucitol, Tetraacetate]
[] for 90% HBV secretion inhibition [1]: >200*s* microgs per ml
Relative amount of HBV secreted As A % of Control ([1]; concentration [200]): 107.0 +/− 12 (n = 3) %
Relative amount of HBV secreted As A % of Control ([1]; concentration [1000]): 38.0 +/− 15 (n = 3) %
% Viable +/− 1 S.D. ([2]; concentration [200]): 90 +/− 6 (n = 4) %
% Viable +/− 1 S.D. ([2]; concentration [1000]): 89 +/− 4 (n = 4) %

CCCCCCCCCN1C[C@H](O)[C@@H](O)[C@H](O)[C@H]1CO [N-nonyl-DNJ, N-(n-nonyl)-1,5-dideoxy-1,5-imino-D-glucitol]
effect on the immune precipitated DNA (IPDNA) [3]: marked effect
effect on total HBV DNA [3]: little or no effect
effect on total HBV DNA measurements ([4]; all dose levels, pre-dose and dosed portions, quantitative PCR): no effect
average minimum slope observed ([4]; decrease of IPDNA, dosing weeks 0-4): 0.31 fewer Log(IPDNA g/mL)/week
decrease of IPDNA at average minimum slope ([4]; dosing weeks 0-4): about 25 %/week
slope of IPDNA levels over the dosing period due to dose or plasma level ([4]; weeks 0-4, straight line fitted per animal): significant difference in the slope
approximate effective monotherapy dose ([4]; woodchucks): about 16 mg/kg/day

CCCCN1C[C@H](O)[C@@H](O)[C@H](O)[C@H]1CO [NBDNJ, N-(n-butyl-)-1,5-dideoxy-1,5-imino-D-glucitol]
[] for 90% HBV secretion inhibition [1]: 0.5-1.0* microgs per ml
Relative amount of HBV secreted As A % of Control ([1]; concentration [200]): 37.0 +/− 13 (n = 15) %
Relative amount of HBV secreted As A % of Control ([1]; concentration [200], listed as 1): 85.0 +/− 5 (n = 8) %
Relative amount of HBV secreted As A % of Control ([1]; concentration [1000]): 3.2 +/− 5 (n = 15) %
Relative amount of HBV secreted As A % of Control ([1]; concentration [1000], listed as 1): 35.0 +/− 6 (n = 8) %
[] for a 50% reduction in MMT [5]: 100-200 microgs per ml

N-[2-(4-Trifluoromethylphenyl)-ethyl]-glucamine [Example 7]
[] for 90% HBV secretion inhibition [1]: >200** microgs per ml
[] for a 50% reduction in MMT ([5]; HepG2.2.15 cells): >200 microgs per ml
